Each structure is given as a SMILES string. Structures can show the parent of a compound that is named as a salt.

Here are results for 15 molecules from US11230543B2, “Biaryl monobactam compounds and methods of use thereof for the treatment of bacterial infections” (priority 2015, dated 2022).

The test system of assay [1] is Pseudomonas aeruginosa expressing AmpC (CL5701). The assay can be described thus: Antibiotic activity: growth inhibitory concentration (OD600), Pseudomonas aeruginosa CL5701. The class given is cell-based. To be noted: lowest concentration inhibiting 95% of bacterial growth; in the presence of β lactamase inhibitor Relebactam 4 μg/mL; 35±2° C. for 22 hours; tested range 100 μM to 0.098 μM. Here is the method: (§1) Antibiotic Activity: Determination of Growth Inhibitory Concentration
(§2) The concentrations of compounds required to inhibit the growth of various strains of bacteria were determined in an assay that assessed bacterial growth by measuring optical density at 600 nm (OD600). The bacterial strains tested included the clinical strains Escherichia coli expressing NDM-1 (CLB30016), Klebsiella pneumoniae expressing KPC-1 (CL6569), Acinetobacter baumannii expressing TEM-1, AmpC, and Oxa-24/40 (CL6188) and Pseudomonas aeruginosa expressing AmpC (CL5701). All compounds were tested in the presence of a β lactamase inhibitor (BLi, Relebactam) in 384-well microplates. The clinical strains were stored as frozen single use stocks, thawed and diluted into 1.1× cation-adjusted Mueller-Hinton II broth to achieve approximately 2×10^5 CFU/mL. Test compounds were dissolved in DMSO and diluted 1:50 in the assay, resulting in a final concentration range of 100 μM to 0.098 μM. On the day of the assay, 1 μL of test compound was added to the plate followed by 4 μL of 50 μg/mL BLi in MOPS buffer and 45 μL of diluted bacteria. Plates were centrifuged at 1000 rpm for 30 seconds, shaken at approximately 800 rpm for 1 minute, and incubated at 35±2° C. for 22 hours. The concentration of BLi used in the assay was 4 μg/mL. At the end of the incubation, absorbance at 600 nm was determined using a spectrophotometer. Inhibition was quantitated by identifying the lowest concentration of test compound that was required to inhibit 95% of the growth of the bacteria. The results for Examples 1-126 are reported in Table I, expressed as the concentration of compound that inhibited 95% of bacterial growth (Minimum Inhibitory Threshold Concentration; MITC95).

The test system of assay [2] is Klebsiella pneumoniae expressing KPC-1 (CL6569). The assay is described as follows: Antibiotic activity: growth inhibitory concentration (OD600), Klebsiella pneumoniae CL6569. The class given is cell-based. To be noted: lowest concentration inhibiting 95% of bacterial growth; in the presence of β lactamase inhibitor Relebactam 4 μg/mL; 35±2° C. for 22 hours; tested range 100 μM to 0.098 μM. As for the experimental part:
as §1, §2

Consider `C[C@H]1[C@H](NC(=O)/C(=N\O[C@@H](COc2ccc(-c3cnn(CCCN)c3)cc2)C(=O)O)c2csc(N)n2)C(=O)N1S(=O)(=O)O` [Example 6, (S)-3-(4-(1-(3-aminopropyl)-1H-pyrazol-4-yl)phenoxy)-2-((((Z)-1-(2-aminothiazol-4-yl)-2-(((2S,3S)-2-methyl-4-oxo-1-sulfoazetidin-3-yl)amino)-2-oxoethylidene)amino)oxy)propanoic acid], for which the “PA_CL5701 MITC95” value in assay [1] came to 100 µM. The “KP_CL6569 MITC95” value in assay [2] was found to be 12.5 µM.

As for `C[n+]1cc(-c2ccc(OC[C@H](O/N=C(\C(=O)N[C@@H]3C(=O)N(OS(=O)(=O)[O-])C3(C)C)c3csc(N)n3)C(=O)O)cc2)ccc1NCC1(N)CC1` [Example 74, (S)-3-((Z)-2-(((S)-2-(4-(6-(((1-aminocyclopropyl)methyl)amino)-1-methylpyridin-1-ium-3-yl)phenoxy)-1-carboxyethoxy)imino)-2-(2-aminothiazol-4-yl)acetamido)-2,2-dimethyl-4-oxoazetidin-1-yl sulfate], the “PA_CL5701 MITC95” value in assay [1] came to 6.25 µM. The “KP_CL6569 MITC95” value in assay [2] was found to be 0.1953 µM.

As for `CC1(C)[C@H](NC(=O)/C(=N\O[C@@H](COc2ccc(-c3cc(CNCCN)n(CCCN)n3)cc2)C(=O)O)c2csc(N)n2)C(=O)N1OS(=O)(=O)O` [Example 125, (S)-3-(4-(5-(((2-Aminoethyl)amino)methyl)-1-(3-aminopropyl)-1H-pyrazol-3-yl)phenoxy)-2-((((Z)-1-(2-aminothiazol-4-yl)-2-(((S)-2,2-dimethyl-4-oxo-1-(sulfooxy)azetidin-3-yl)amino)-2-oxoethylidene)amino)oxy)propanoic acid], the “PA_CL5701 MITC95” value in assay [1] is 3.125 µM. Besides, in assay [2], the “KP_CL6569 MITC95” value stood at 0.39 µM.

For `Cn1c(-c2ccc(OC[C@H](O/N=C(\C(=O)N[C@@H]3C(=O)N(OS(=O)(=O)O)C3(C)C)c3csc(N)n3)C(=O)O)cc2)cn(CCCN)c1=NCCN` (stereo in doubt) [Example 57, (S)-3-(4-((Z)-2-((2-aminoethyl)imino)-1-(3-aminopropyl)-3-methyl-2,3-dihydro-1H-imidazol-4-yl)phenoxy)-2-((((Z)-1-(2-aminothiazol-4-yl)-2-(((S)-2,2-dimethyl-4-oxo-1-(sulfooxy)azetidin-3-yl)amino)-2-oxoethylidene)amino)oxy)propanoic acid], the “PA_CL5701 MITC95” value in assay [1] was found to be 3.125 µM. Moreover, the “KP_CL6569 MITC95” value in assay [2] came to 0.1953 µM.

Take `C[n+]1cc(-c2ccc(OC[C@H](O/N=C(\C(=O)N[C@@H]3C(=O)N(OS(=O)(=O)[O-])C3(C)C)c3csc(N)n3)C(=O)O)cc2)cn1CCN` [Example 17, (S)-3-((Z)-2-(((S)-2-(4-(1-(2-aminoethyl)-2-methyl-1H-pyrazol-2-ium-4-yl)phenoxy)-1-carboxyethoxy)imino)-2-(2-aminothiazol-4-yl)acetamido)-2,2-dimethyl-4-oxoazetidin-1-yl sulfate]: the “PA_CL5701 MITC95” value in assay [1] was 6.25 µM. Moreover, the “KP_CL6569 MITC95” value in assay [2] amounted to 0.3906 µM.

On to `CN(CC(O/N=C(\C(=O)N[C@@H]1C(=O)N(OS(=O)(=O)[O-])C1(C)C)c1csc(N)n1)C(=O)O)c1ccc(-c2cn(CCCN)[n+](C)c2)cc1` (stereo partly drawn) [Example 92, (3S)-3-(2-((2-((4-(1-(3-aminopropyl)-2-methyl-1H-pyrazol-2-ium-4-yl)phenyl)(methyl)amino)-1-carboxyethoxy)imino)-2-(2-aminothiazol-4-yl)acetamido)-2,2-dimethyl-4-oxoazetidin-1-yl sulfate], for which the “PA_CL5701 MITC95” value in assay [1] was determined as 100 µM. The “KP_CL6569 MITC95” value in assay [2] was determined as 6.25 µM.

On to `C[C@@H](COc1ccc(-c2ccc(NCCN)[n+](C)c2)cc1)O/N=C(\C(=O)N[C@@H]1C(=O)N(OS(=O)(=O)O)C1(C)C)c1csc(N)n1` [Example 90, (S)-3-((Z)-2-((((S)-1-(4-(6-((2-aminoethyl)amino)-1-methylpyridin-1-ium-3-yl)phenoxy)propan-2-yl)oxy)imino)-2-(2-aminothiazol-4-yl)acetamido)-2,2-dimethyl-4-oxoazetidin-1-yl sulfate], for which the “PA_CL5701 MITC95” value in assay [1] is 25 µM. Further, the “KP_CL6569 MITC95” value in assay [2] is 1.563 µM.

Take `CC1(C)[C@H](NC(=O)/C(=N\O[C@@H](COc2ccc(-c3cn(CCCN)c(N)n3)cc2)C(=O)O)c2csc(N)n2)C(=O)N1OS(=O)(=O)O.O=C(O)C(F)(F)F` [Example 31, 3-(2-amino-4-(4-((S)-2-((((Z)-1-(2-aminothiazol-4-yl)-2-(((S)-2,2-dimethyl-4-oxo-1-(sulfooxy)azetidin-3-yl)amino)-2-oxoethylidene)amino)oxy)-2-carboxyethoxy)phenyl)-1H-imidazol-1-yl)propan-1-aminium 2,2,2-trifluoroacetate]: the “PA_CL5701 MITC95” value in assay [1] is 3.125 µM. Moreover, the “KP_CL6569 MITC95” value in assay [2] was 0.3906 µM.

As for `C[n+]1cc(-c2ccc(OCC(C)(O/N=C(\C(=O)N[C@@H]3C(=O)N(OS(=O)(=O)O)C3(C)C)c3nc(N)sc3Cl)C(=O)O)cc2)cn1CCCN` (stereo in doubt) [Example 51A, (S)-3-((Z)-2-(2-Amino-5-chlorothiazol-4-yl)-2-((((R)-1-(4-(1-(3-aminopropyl)-2-methyl-1H-pyrazol-2-ium-4-yl)phenoxy)-2-carboxypropan-2-yl)oxy)imino)acetamido)-2,2-dimethyl-4-oxoazetidin-1-yl sulfate], the “PA_CL5701 MITC95” value in assay [1] came out at 3.125 µM. Moreover, in assay [2], the “KP_CL6569 MITC95” value stood at 0.7813 µM.

As for `Cc1cn(CCCN)[n+](C)c1-c1ccc(OC[C@H](O/N=C(\C(=O)N[C@@H]2C(=O)N(OS(=O)(=O)O)C2(C)C)c2csc(N)n2)C(=O)O)cc1.O=C([O-])C(F)(F)F` [Example 19, 1-(3-aminopropyl)-3-(4-((S)-2-((((Z)-1-(2-aminothiazol-4-yl)-2-(((S)-2,2-dimethyl-4-oxo-1-(sulfooxy)azetidin-3-yl)amino)-2-oxo-ethylidene)amino)oxy)-2-carboxyethoxy)phenyl)-2,4-dimethyl-1H-pyrazol-2-ium 2,2,2-trifluoroacetate], the “PA_CL5701 MITC95” value in assay [1] was found to be 12.5 µM. Moreover, in assay [2], the “KP_CL6569 MITC95” value is 0.7813 µM.

Regarding `C[n+]1cc(-c2ccc(OC[C@H](O/N=C(\C(=O)N[C@@H]3C(=O)N(OS(=O)(=O)[O-])C3(C)C)c3csc(N)n3)C(=O)O)cc2)ccc1N1CCNCC1` [Example 71, (S)-3-((Z)-2-(2-aminothiazol-4-yl)-2-(((S)-1-carboxy-2-(4-(1-methyl-6-(piperazin-1-yl)pyridin-1-ium-3-yl)phenoxy)ethoxy)imino)acetamido)-2,2-dimethyl-4-oxoazetidin-1-yl sulfate], in assay [1], the “PA_CL5701 MITC95” value is 6.25 µM. Further, the “KP_CL6569 MITC95” value in assay [2] was 0.1953 µM.

For the molecule `C[n+]1cc(-c2ccc(OC[C@H](O/N=C(\C(=O)N[C@@H]3C(=O)N(OS(=O)(=O)O)C3(C)C)c3csc(N)n3)C(=O)O)cc2)ccc1CCCN` [Example 88, (S)-3-((Z)-2-(((S)-2-(4-(6-(3-aminopropyl)-1-methylpyridin-1-ium-3-yl)phenoxy)-1-carboxyethoxy)imino)-2-(2-aminothiazol-4-yl)acetamido)-2,2-dimethyl-4-oxoazetidin-1-yl sulfate], the “PA_CL5701 MITC95” value in assay [1] came to 3.125 µM. The “KP_CL6569 MITC95” value in assay [2] came out at 0.3906 µM.

For the molecule `Cn1c(-c2ccc(OC[C@H](O/N=C(\C(=O)N[C@@H]3C(=O)N(OS(=O)(=O)O)C3(C)C)c3csc(N)n3)C(=O)O)cc2)cn(CC(CN)CN)c1=N` [Example 55, (S)-3-(4-(1-(3-amino-2-(aminomethyl)propyl)-2-imino-3-methyl-2,3-dihydro-1H-imidazol-4-yl)phenoxy)-2-((((Z)-1-(2-aminothiazol-4-yl)-2-(((S)-2,2-dimethyl-4-oxo-1-(sulfooxy)azetidin-3-yl)amino)-2-oxoethylidene)amino)oxy)propanoic acid], in assay [1], the “PA_CL5701 MITC95” value was found to be 1.563 µM. The “KP_CL6569 MITC95” value in assay [2] is 0.1953 µM.

In the case of `CC1(C)[C@H](NC(=O)/C(=N\O[C@@H](COc2ccc(C(N)CNC3=NCCN3)cc2)C(=O)O)c2csc(N)n2)C(=O)N1OS(=O)(=O)O` (stereo partly drawn) [Example 61, (2S)-3-(4-(1-amino-2-((4,5-dihydro-1H-imidazol-2-yl)amino)ethyl)phenoxy)-2-((((Z)-1-(2-aminothiazol-4-yl)-2-(((S)-2,2-dimethyl-4-oxo-1-(sulfooxy)azetidin-3-yl)amino)-2-oxoethylidene)amino)oxy)propanoic acid], the “PA_CL5701 MITC95” value in assay [1] is 12.5 µM. In assay [2], the “KP_CL6569 MITC95” value was determined as 1.563 µM.

On to `C[n+]1c(N)c(-c2ccc(OC[C@H](O/N=C(\C(=O)N[C@@H]3C(=O)N(OS(=O)(=O)[O-])C3(C)C)c3csc(N)n3)C(=O)O)cc2)cn1CCCN` [Example 28, (S)-3-((Z)-2-(((S)-2-(4-(3-Amino-1-(3-aminopropyl)-2-methyl-1H-pyrazol-2-ium-4-yl)phenoxy)-1-carboxyethoxy)imino)-2-(2-aminothiazol-4-yl)acetamido)-2,2-dimethyl-4-oxoazetidin-1-yl sulfate], for which, in assay [1], the “PA_CL5701 MITC95” value came to 3.13 µM. For the same molecule, the “KP_CL6569 MITC95” value in assay [2] stood at 0.2 µM.
